This note sets out measurements from patent publication US8436036B2, “Diaryl ethers” (Janssen R&D Ireland, priority 2009, dated 2013).

For one series, the system named is HCV replicon. The experiment in a line: HCV replicon assay (Huh-Luc cells, luciferase read-out). The note with it: Hepatitis C virus, 72 h, three days incubation, luciferase activity. It is filed as cell-based, HCV type Ib. An excerpt:
The compounds of formula (I) were examined for inhibitory activity in the HCV replicon. This cellular assay is based on a bicistronic expression construct, as described by Lohmann et al. (1999) Science vol. 285 pp. 110-113 with modifications described by Krieger et al. (2001) Journal of Virology 75: 4614-4624, in a multi-target screening strategy.
In essence, the method was as follows:
The assay utilized the stably transfected cell line Huh-7 luc/neo (hereafter referred to as Huh-Luc). This cell line harbors an RNA encoding a bicistronic expression construct comprising the wild type NS3-NS5B regions of HCV type Ib translated from an Internal Ribosome Entry Site (IRES) from encephalomyocarditis virus (EMCV), preceded by a reporter portion (FfL-luciferase), and a selectable marker portion (neo^R, neomycine phosphotransferase). The construct is flanked by 5′ and 3′ NTRs (non-translated regions) from HCV type Ib. Continued culture of the replicon cells in the presence of G418 (neo^R) is dependent on the replication of the HCV RNA. The stably transfected replicon cells that express HCV RNA, which replicates autonomously and to high levels, encoding inter alia luciferase, were used for screening the antiviral compounds.
The replicon cells were plated in 384 well plates in the presence of the test and control compounds which were added in various concentrations. Following an incubation of three days, HCV replication was measured by assaying luciferase activity (using standard luciferase assay substrates and reagents and a Perkin Elmer ViewLux™ ultraHTS microplate imager). Replicon cells in the control cultures have high luciferase expression in the absence of any inhibitor. The inhibitory activity of the compound on luciferase activity was monitored on the Huh-Luc cells, enabling a dose-response curve for each test compound. EC50 values were then calculated, which represent the amount of compound required to decrease the level of detected luciferase activity by 50%, or more specifically, to reduce the ability of the genetically linked HCV replicon RNA to replicate.
A general note: A replicon is a self-replicating genome or part of one, used to study replication in cells.

A further series in a line: Cytotoxicity (Huh-7). It counts as cell-based. The note with it: human, Huh-7 cells. An excerpt: The in vitro antiviral activity against HCV of the compounds of formula I can be tested in a cellular HCV replicon system based on Lohmann et al. (1999) Science 285:110-113, with the further modifications described by Krieger et al. (2001) Journal of Virology 75: 4614-4624 (incorporated herein by reference), which is further exemplified in the examples section. This model, while not a complete infection model for HCV, is widely accepted as the most robust and efficient model of autonomous HCV RNA replication currently available. It will be appreciated that it is important to distinguish between compounds that specifically interfere with HCV functions from those that exert cytotoxic or cytostatic effects in the HCV replicon model, and as a consequence cause a decrease in HCV RNA or linked reporter enzyme concentration. Assays are known in the field for the evaluation of cellular cytotoxicity based for example on the activity of mitochondrial enzymes using fluorogenic redox dyes such as resazurin. Furthermore, cellular counter screens exist for the evaluation of non-selective inhibition of linked reporter gene activity, such as firefly luciferase. Appropriate cell types can be equipped by stable transfection with a luciferase reporter gene whose expression is dependent on a constitutively active gene promoter, and such cells can be used as a counter-screen to eliminate non-selective inhibitors.

SMILES strings stand for the structures. Where only a bound is given, the exact number is not on record here.

A word on the EC50: it is the concentration giving half of the maximal effect. What is called CC50 is the concentration that lowers cell viability or growth by half. A higher CC50 goes with lower toxicity to the cells. Take `O=C(Cc1ccccc1OC(F)(F)F)N1CCC[C@H]1c1nc(-c2cccc(Oc3ccc(-c4cnc([C@@H]5CCCN5C(=O)Cc5ccccc5OC(F)(F)F)[nH]4)cc3)c2)c[nH]1` [Example 24]: the EC50 in the series on HCV replicon was 0.0144 µM. Also, the 50% cytotoxic concentration (CC50) in the series “Cytotoxicity (Huh-7)” was over 31.5 µM.

For `O=C([C@@H](O)c1ccccc1)N1CCC[C@H]1c1nc(-c2cccc(Oc3ccc(-c4cnc([C@@H]5CCCN5C(=O)[C@@H](O)c5ccccc5)[nH]4)cc3)c2)c[nH]1` [Example 23], the EC50 in the series on HCV replicon came out at 0.0608 µM. The compound further showed a 50% cytotoxic concentration (CC50) in the series “Cytotoxicity (Huh-7)” of 3.66 µM.

Turning to `O=C(CCc1ccccc1F)N1CCC[C@H]1c1nc(-c2cccc(Oc3ccc(-c4cnc([C@@H]5CCCN5C(=O)CCc5ccccc5F)[nH]4)cc3)c2)c[nH]1` [Example 26], in the series with HCV replicon, the EC50 amounted to 2.31 µM. The compound also had a cytotoxic concentration (CC50) in “Cytotoxicity (Huh-7)” of over 31.5 µM.

Take `CN(C)C(C(=O)N1CCC[C@H]1c1nc(-c2cccc(Oc3ccc(-c4cnc([C@@H]5CCCN5C(=O)C(c5ccc(Cl)cc5)N(C)C)[nH]4)cc3)c2)c[nH]1)c1ccc(Cl)cc1` (stereo partly drawn) [Example 30]: in the series with HCV replicon, the 50% effective concentration (EC50) worked out at 0.00362 µM. The 50% cytotoxic concentration (CC50) in the series “Cytotoxicity (Huh-7)” turned out to be 4.6 µM.

Regarding `COC(=O)NC(C(=O)N1CCC[C@H]1c1nc(-c2ccc(Oc3ccc(OC)c(-c4cnc([C@@H]5CCCN5C(=O)C(NC(=O)OC)c5ccccc5)[nH]4)c3)cc2)c[nH]1)c1ccccc1` (stereo partly drawn) [Example 46], the EC50 in the series on HCV replicon was over 0.98 µM. For the same compound, the CC50 in the series “Cytotoxicity (Huh-7)” is over 98.4 µM.

Consider `COc1cccc(CCC(=O)N2CCC[C@H]2c2nc(-c3cccc(Oc4ccc(-c5cnc([C@@H]6CCCN6C(=O)CCc6cccc(OC)c6)[nH]5)cc4)c3)c[nH]2)c1` [Example 27], for which the EC50 in the series on HCV replicon was 3.53 µM. For the same compound, in “Cytotoxicity (Huh-7)”, the CC50 was over 31.5 µM.
